Measurements reported in PubChem BioAssay (NCI).
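Growth conditions: 96-well plates. Treatment: test compound, 48 hours, 5 concentrations. Analysis: linear interpolation between bracketing concentrations; unreached endpoints set to highest concentration. GI50 is the concentration that inhibits growth by half. TGI marks complete inhibition of growth.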

What was measured:
Assay in all cases: DTP human tumour cell line panel, 48 h
COLO 205 colon = test system: COLO 205 colon
A549 NSCLC = test system: A549 NSCLC
HOP-62 NSCLC = test system: HOP-62 NSCLC
RPMI-8226 leukemia = test system: RPMI-8226 leukemia
MDA-MB-231 breast = test system: MDA-MB-231 breast
KM12 colon = test system: KM12 colon
U251 CNS = test system: U251 CNS
NCI-H522 lung = test system: NCI-H522 lung
SF-539 CNS = test system: SF-539 CNS
HT29 colon = test system: HT29 colon
SN12C renal = test system: SN12C renal
BT-549 breast = test system: BT-549 breast
DU-145 prostate = test system: DU-145 prostate
SNB-75 CNS = test system: SNB-75 CNS
HS 578T breast = test system: HS 578T breast
HCT-15 colon = test system: HCT-15 colon
SK-MEL-28 melanoma = test system: SK-MEL-28 melanoma
LOX IMVI melanoma = test system: LOX IMVI melanoma
K-562 leukemia = test system: K-562 leukemia
MDA-MB-435 = test system: MDA-MB-435
PC-3 prostate = test system: PC-3 prostate
CAKI-1 renal = test system: CAKI-1 renal
OVCAR-8 ovarian = test system: OVCAR-8 ovarian
MDA-MB-468 breast = test system: MDA-MB-468 breast
OVCAR-5 ovarian = test system: OVCAR-5 ovarian
MALME-3M melanoma = test system: MALME-3M melanoma
SNB-19 CNS = test system: SNB-19 CNS
NCI-H226 lung = test system: NCI-H226 lung
SF-268 CNS = test system: SF-268 CNS
NCI-H460 lung = test system: NCI-H460 lung
SW-620 colon = test system: SW-620 colon
UO-31 renal = test system: UO-31 renal
HCC-2998 colon = test system: HCC-2998 colon
OVCAR-4 ovarian = test system: OVCAR-4 ovarian
RXF 393 renal = test system: RXF 393 renal
EKVX NSCLC = test system: EKVX NSCLC
SK-MEL-5 melanoma = test system: SK-MEL-5 melanoma
SK-OV-3 ovarian = test system: SK-OV-3 ovarian
UACC-62 melanoma = test system: UACC-62 melanoma
SK-MEL-2 melanoma = test system: SK-MEL-2 melanoma
UACC-257 melanoma = test system: UACC-257 melanoma
MOLT-4 leukemia = test system: MOLT-4 leukemia
A498 renal = test system: A498 renal
786-0 renal = test system: 786-0 renal
IGROV1 ovarian = test system: IGROV1 ovarian
T-47D breast = test system: T-47D breast
NCI/ADR-RES ovarian = test system: NCI/ADR-RES ovarian
TK-10 renal = test system: TK-10 renal
SF-295 CNS = test system: SF-295 CNS
SR leukemia = test system: SR leukemia
HOP-92 NSCLC = test system: HOP-92 NSCLC
HL-60(TB) leukemia = test system: HL-60(TB) leukemia
NCI-H23 lung = test system: NCI-H23 lung
OVCAR-3 ovarian = test system: OVCAR-3 ovarian
HCT-116 colon = test system: HCT-116 colon
MCF7 breast = test system: MCF7 breast
M14 melanoma = test system: M14 melanoma
ACHN renal = test system: ACHN renal

Structure (SMILES): CN1CCN(c2ccc(Nc3nc(NCCNC(=O)c4ccc(C(F)(F)F)cc4)c4sccc4n3)cc2)CC1
- GI50 (COLO 205 colon): 7.4 µM
- TGI (COLO 205 colon): 22.6 µM
- GI50 (A549 NSCLC): 11.7 µM
- TGI (A549 NSCLC): 30.8 µM
- GI50 (HOP-62 NSCLC): 15.1 µM
- TGI (HOP-62 NSCLC): 30.7 µM
- GI50 (RPMI-8226 leukemia): 1.88 µM
- TGI (RPMI-8226 leukemia): 4.54 µM
- GI50 (MDA-MB-231 breast): 3.72 µM
- TGI (MDA-MB-231 breast): 14.4 µM
- GI50 (KM12 colon): 14 µM
- TGI (KM12 colon): 30.8 µM
- GI50 (U251 CNS): 3.54 µM
- TGI (U251 CNS): 13.8 µM
- GI50 (NCI-H522 lung): 4.21 µM
- TGI (NCI-H522 lung): 16.7 µM
- GI50 (SF-539 CNS): 2.12 µM
- TGI (SF-539 CNS): 4.6 µM
- GI50 (HT29 colon): 3.53 µM
- TGI (HT29 colon): 12.6 µM
- GI50 (SN12C renal): 12.9 µM
- TGI (SN12C renal): 25.7 µM
- GI50 (BT-549 breast): 12.3 µM
- TGI (BT-549 breast): 25.1 µM
- GI50 (DU-145 prostate): 14.2 µM
- TGI (DU-145 prostate): 27.9 µM
- GI50 (SNB-75 CNS): 6.55 µM
- TGI (SNB-75 CNS): 20.7 µM
- GI50 (HS 578T breast): 4.19 µM
- TGI (HS 578T breast): 23.2 µM
- GI50 (HCT-15 colon): 3.33 µM
- TGI (HCT-15 colon): 13.9 µM
- GI50 (SK-MEL-28 melanoma): 2.13 µM
- TGI (SK-MEL-28 melanoma): 3.99 µM
- GI50 (LOX IMVI melanoma): 2.66 µM
- TGI (LOX IMVI melanoma): 8.84 µM
- GI50 (K-562 leukemia): 2.24 µM
- TGI (K-562 leukemia): 8.8 µM
- GI50 (MDA-MB-435): 3.5 µM
- TGI (MDA-MB-435): 11 µM
- GI50 (PC-3 prostate): 10.4 µM
- TGI (PC-3 prostate): 26.9 µM
- GI50 (CAKI-1 renal): 9.24 µM
- TGI (CAKI-1 renal): 21.7 µM
- GI50 (OVCAR-8 ovarian): 10.8 µM
- TGI (OVCAR-8 ovarian): 28 µM
- GI50 (MDA-MB-468 breast): 2.26 µM
- TGI (MDA-MB-468 breast): 9.44 µM
- GI50 (OVCAR-5 ovarian): 15.1 µM
- TGI (OVCAR-5 ovarian): 30.5 µM
- GI50 (MALME-3M melanoma): 1.77 µM
- TGI (MALME-3M melanoma): 3.16 µM
- GI50 (SNB-19 CNS): 14.2 µM
- TGI (SNB-19 CNS): 27.5 µM
- GI50 (NCI-H226 lung): 14 µM
- TGI (NCI-H226 lung): 29.8 µM
- GI50 (SF-268 CNS): 11.1 µM
- TGI (SF-268 CNS): 31.4 µM
- GI50 (NCI-H460 lung): 13.3 µM
- TGI (NCI-H460 lung): 28.7 µM
- GI50 (SW-620 colon): 12.7 µM
- TGI (SW-620 colon): 26.4 µM
- GI50 (UO-31 renal): 11.8 µM
- TGI (UO-31 renal): 24.1 µM
- GI50 (HCC-2998 colon): 4.55 µM
- TGI (HCC-2998 colon): 15.5 µM
- GI50 (OVCAR-4 ovarian): 13.6 µM
- TGI (OVCAR-4 ovarian): 48.1 µM
- GI50 (RXF 393 renal): 2.67 µM
- TGI (RXF 393 renal): 10.3 µM
- GI50 (EKVX NSCLC): 13.9 µM
- TGI (EKVX NSCLC): 29.2 µM
- GI50 (SK-MEL-5 melanoma): 2.3 µM
- TGI (SK-MEL-5 melanoma): 5.99 µM
- GI50 (SK-OV-3 ovarian): 17.3 µM
- TGI (SK-OV-3 ovarian): 33.4 µM
- GI50 (UACC-62 melanoma): 2.01 µM
- TGI (UACC-62 melanoma): 4.79 µM
- GI50 (SK-MEL-2 melanoma): 15.7 µM
- TGI (SK-MEL-2 melanoma): 29.7 µM
- GI50 (UACC-257 melanoma): 1.75 µM
- TGI (UACC-257 melanoma): 3.39 µM
- GI50 (MOLT-4 leukemia): 3.64 µM
- TGI (MOLT-4 leukemia): 16.5 µM
- GI50 (A498 renal): 17.1 µM
- TGI (A498 renal): 31 µM
- GI50 (786-0 renal): 3.24 µM
- TGI (786-0 renal): 13.1 µM
- GI50 (IGROV1 ovarian): 12.9 µM
- TGI (IGROV1 ovarian): 26 µM
- GI50 (T-47D breast): 10.8 µM
- TGI (T-47D breast): 31.1 µM
- GI50 (NCI/ADR-RES ovarian): 16.1 µM
- TGI (NCI/ADR-RES ovarian): 39.5 µM
- GI50 (TK-10 renal): 16.6 µM
- TGI (TK-10 renal): 30.8 µM
- GI50 (SF-295 CNS): 3.52 µM
- TGI (SF-295 CNS): 13.6 µM
- GI50 (SR leukemia): 1.9 µM
- TGI (SR leukemia): 5.21 µM
- GI50 (HOP-92 NSCLC): 4.66 µM
- TGI (HOP-92 NSCLC): 18.9 µM
- GI50 (HL-60(TB) leukemia): 3.49 µM
- TGI (HL-60(TB) leukemia): 15.8 µM
- GI50 (NCI-H23 lung): 14.6 µM
- TGI (NCI-H23 lung): 29.6 µM
- GI50 (OVCAR-3 ovarian): 14.4 µM
- TGI (OVCAR-3 ovarian): 32 µM
- GI50 (HCT-116 colon): 4.25 µM
- TGI (HCT-116 colon): 15.2 µM
- GI50 (MCF7 breast): 4.06 µM
- TGI (MCF7 breast): 15.7 µM
- GI50 (M14 melanoma): 1.88 µM
- TGI (M14 melanoma): 3.63 µM
- GI50 (ACHN renal): 13.4 µM
- TGI (ACHN renal): 27.9 µM
